“Also recorded” adds a separate entry of the source.
Key:
[1] = test system: VCaP (AR-V7 positive) cells; assay: Cell growth inhibition in VCaP cells (Cell Titer-Glo, 96 hours); assay type: cell-based; conditions: for effect on growth and number of viable VCaP cells (in words): single agent, 3 to 10,000 nM; for effect on growth and number of viable VCaP cells (in words) / inhibition of cell growth and viability: 96 hours; for EC50: Homo sapiens, VCaP
Experimental: (§1) VCaP cells were grown under standard cell culture conditions in 10% fetal bovine serum (FBS). LNCaP cells were grown in charcoal stripped FBS supplemented with 10 nM DHT in a 3-dimensional cell spheroid culture system, which increases androgen-dependent growth. […] This concentration of enzalutamide (3000 nM) was chosen for the combination study because it matches the clinical steady state trough level of enzalutamide at the recommended dose of 160 mg QD after accounting for differences in protein binding between cell culture media and human plasma. Cell growth and number was measured by quantification of the total cellular ATP content (Cell Titer-Glo® Luminescent Cell Viability Assay) at the time of compound addition (T=0), and after 96 hours of treatment.
(§2) Referring again to FIG. 1, the Y-axis is normalized CellTiter-Glo values where the bottom of the assay (no ATP)=0% and the DMSO-treated cells=100% at the end of the assay. T=0 represents the CellTiter-Glo signal recorded at the time of compound addition. […] One representative of three independent experiments is shown.

[2] = patients, enzalutamide; cited from earlier work
[3] = test system: LNCaP (AR-V7 negative) cells; assay: Cell growth inhibition in LNCaP cells, 3-dimensional spheroid culture (Cell Titer-Glo, 96 hours); assay type: cell-based
Experimental: as §1, §2

[4] = Protein binding difference between cell culture media and human plasma; assay type: in vitro ADME; conditions: cell culture media vs human plasma
[5] = dog, in vivo
Experimental: The Phase 1 study will be a 3+3 dose escalation to evaluate the safety, tolerability, PK, and maximum tolerated dose of compound (I-1) after multiple dosing in patients with CRPC. The initial dose will be at 0.6 mg, and intensive safety, PK and PD monitoring will occur prior to each dose escalation. […] Approximately six dose levels will be explored. The PD assessment will be a NanoString assay that measures levels of HEXIM1 and CCR2 RNA in peripheral blood cells.

[6] = compound (I-1) alone at its projected Cmax
[7] = compound (I-1) alone at its projected Cmin
[8] = compound (I-1) at its projected Cmax with 3,000 nM enzalutamide
[9] = compound (I-1) at its projected Cmin with 3,000 nM enzalutamide

SMILES | effect on growth and number of viable VCaP cells (in words) [1] | OS HR [2] | increase in OS [2] [month] | EC50 ([1]; compound (I-1) alone) [nM] | EC50 ([1]; in the presence of 3,000 nM enzalutamide) [nM] | inhibition of cell growth and viability [1, 6] [%] | inhibition of cell growth and viability [1, 7] [%] | inhibition of cell growth and viability [1, 8] [%] | inhibition of cell growth and viability [1, 9] [%] | inhibition of cell growth and viability [3, 6] [%] | inhibition of cell growth and viability [3, 7] [%] | inhibition of cell growth and viability [3, 8] [%] | inhibition of cell growth and viability [3, 9] [%] | difference in protein binding between cell culture media and human plasma [4] [×] | dose/toxicity relationship [5]
CNC(=O)c1ccc(N2C(=S)N(c3ccc(C#N)c(C(F)(F)F)c3)C(=O)C2(C)C)cc1F [enzalutamide] | reduced the growth of VCaP cells but the magnitude of growth suppression was significantly less than that observed for compound (I-1) | 0.69 | 3.4 |  |  |  |  |  |  |  |  |  |  |  | 
Cc1noc(C)c1-c1cc(C(O)(c2ccccn2)c2ccccn2)c2nc(C3CC3)[nH]c2c1 [compound (I-1), (2-cyclopropyl-6-(3,5-dimethylisoxazol-4-yl)-1H-benzo[d]imidazol-4-yl)di(pyridin-2-yl)methanol] | potently reduced the growth of VCaP cells; also recorded: decreased the number of viable cells to below that recorded at the beginning of the assay (T=0) |  |  | 130 | 75 | 40 | 0 | 65 | 25 | 45 | 20 | 65 | 45 | 5.7 | steep dose/toxicity relationship

Source: patent US20180153867A1, “TREATMENT OF PROSTATE CANCER BY CONCOMITANT ADMINISTRATION OF A BROMODOMAIN INHIBITOR AND A SECOND AGENT” (Gilead Sciences, Inc., priority 2016, published 2018)
